Reference: patent publication US20120135091A1, “METHODS AND COMPOSITIONS FOR ENHANCING LIFESPAN INVOLVING SIRTUIN-MODULATING COMPOUNDS AND CHALCOGENIDES” (priority 2007, published 2012)
Where two headings read alike, the source gives them in different places.

Key:
C57BL/6 mice [1] = system: C57BL/6 mice
Experimental: In one set of experiments, compositions were tested in male C57BL/6 jugular vein catheterized (JVC) mice, 5-6 weeks old (Taconic), by infusing the animals with the liquid sulfide liquid compositions using 1 mL or 5 mL Luer-Lok syringes (Becton Dickison). An IPTT-300 transponder from Bio Medic Data Systems (BMDS) was used to monitor body temperature.
Each mouse was dosed with liquid compositions through the in-dwelling catheter using an infusion pump (Harvard Apparatus). The mouse was infused until the temperature chip implanted in the skin registered a body temperature of 33° C. […] Once the animal's temperature dropped to 33° C. or below, the infusion was stopped and the mouse was transferred into a hypoxic atmosphere (4.0% O2) together with a control mouse.

C57BL/6 mice [2] = format: in vivo, mouse
C. elegans [3] = test: Brood size measurement; format: in vivo; conditions: moved to H2S, n=5
Text: Brood size measurement. To determine the number of viable progeny produced by nematodes, individual fourth-stage larvae (L4) were transferred to NGM plates with OP50 food at room temperature. Animals were moved daily until they quit laying fertilized eggs. Progeny were counted as L4/young adult.

C. elegans [4] = test: Lifespan in H2S-containing atmosphere; format: in vivo
Experimental: (§1) Growing Nematodes in H2S-Containing Atmospheres. Bristol strain N2 (wild-type) and mutant nematode strains were grown at room temperature on nematode growth medium (NGM) plates seeded with live E. coli OP50 food (48). Mutant strains obtained from the C. elegans genetic stock center were as follows: CB130, daf-2(e1370); DR26, daf-16(m26); VC520, isp-1(gk267); MQ130, clk-1(qm30); DA1116, eat-2(ad1116); VC199, sir-2.1(ok434). Plates were maintained in atmospheric chambers sealed with Dow Corning Vacuum Grease (Sigma). […] Gasses were hydrated using gas wash bottles (Fisher), and moved through ⅛ inch outer diameter FEP tubing (Cole Parmer) with connections by snap connectors (Cole Parmer), stainless steel quick connect fittings or compression fittings (Seattle Fluid Systems). […] All compressed gas mixtures used in this study were obtained from Byrne Gas and were certified standard to within 2% of indicated concentration. Flow tubes (Aalborg) were used to distribute the gas mixture to different chambers. Gas flow rate was 100 cc/m to small boxes (100-300 mL) and 800 cc/m to the large boxes (1-3 L) used to culture nematode strains at room temperature. At these flow rates, the gaseous environment of the atmospheric chambers is exchanged every 20-30 minutes. […] Data were collected using Chart software with a Powerlab data acquisition unit (ADInstruments) and analyzed with EXCEL.

mice = conditions: mouse, in vivo
Experimental: Experiments were stopped at 60 minutes, and animals still alive were returned to their cage.

C. elegans [5] = test: Rate of egg-laying; format: in vivo
Experimental: Animals were picked as L4 from mixed-stage populations and allowed to develop for 20-30 hours in the same conditions at room temperature. Individual worms were then placed onto NGM plates with a 10 μL spot of OP50 food. The number of embryos laid in 3-5 hours was counted to determine the rate of egg-laying. To create an atmosphere with 2% O2, N2 was mixed with 5% O2 balanced with N2. Smart-Trak series 100 mass flow controllers (Sierra Instruments) were used to mix the gas and to split it into 2 atmospheric chambers. […] In each experiment, 10-15 individuals were included in each group. The data shown in Table 2 are from one experiment that is representative of at least three independent assays.

C. elegans [6] = test: Thermotolerance assay (survival at high temperature); format: in vivo
Experimental: as §1
Thermotolerance Assay. […] Care was taken to prevent the population from starving. Nematodes were picked from these mixed-stage populations as L4 larvae and allowed to develop for 24-48 h at room temperature; however, treated and control animals were always the same age. […] Groups of 20-30 animals were transferred to NGM plates without food and then placed into an atmospheric chamber perfused with the indicated gas at high temperature in an Echotherm 1N35 incubator (Torrey Pines Scientific, NIST traceable) or a VWR incubator model 2005 (VWR International). A ring of palmitic acid around the edge of the plate helped prevent the worms escaping the surface of the agar. […]

[7] = 4.0% O2 after infusion until body temperature 33° C., test ended at 60 minutes
[8] = jugular vein infusion until body temperature of 33° C.

C[S+](C)[O-] [Dimethylsulfoxide]
effective dose (C57BL/6 mice [1]; too high to be considered for pharmaceutical purposes): 10 % DMSO

OC1CCSCC1 [tetrahydrothiopyran-4-ol]
survival in lethal hypoxia (C57BL/6 mice [2]; [7]): 15 min

CC(=O)N[C@@H](CS)C(=O)O [N-acetyl-L-cysteine]
reduction of body (subcutaneous) temperature (C57BL/6 mice [1]; infusion, primary screen): did not reduce subcutaneous temperature

[SeH2] [sodium selenide]
reduction of body (subcutaneous) temperature (C57BL/6 mice [1]; mouse, in vivo, sc): did not reduce subcutaneous temperature

CC(O)=S [Thioacetic acid]
enhancement of survival in hypoxia (C57BL/6 mice [2]; lethal hypoxia 4% O2): did not enhance survival in hypoxia | reduction of body (subcutaneous) temperature (C57BL/6 mice [1]; mouse, in vivo, sc): reduced body temperature

NCCS [cysteamine]
survival in lethal hypoxia (C57BL/6 mice [2]; [7]): 45 min | effective dose (C57BL/6 mice [1]; mouse, in vivo): 7.58 mmol/kg

C[S-].[Na+] [sodium thiomethoxide]
survival in lethal hypoxia (C57BL/6 mice [2]; [7]): 60 min | effective dose (C57BL/6 mice [1]; [8]): 4.61 mmol/kg

CS(=O)[O-].[Na+] [sodium methane sulfinate]
reduction of body (subcutaneous) temperature (C57BL/6 mice [1]; infusion, primary screen): did not reduce subcutaneous temperature

sodium sulfide
survival in lethal hypoxia (C57BL/6 mice [2]; mouse, in vivo): 60 min | effective dose (C57BL/6 mice [1]; mouse, in vivo): 0.79 mmol/kg

CSC [dimethyl sulfide]
reduction of body (subcutaneous) temperature (C57BL/6 mice [1]; infusion, primary screen): did not reduce subcutaneous temperature

O=C(O)CS [thioglycolic acid]
reduction of body (subcutaneous) temperature (C57BL/6 mice [1]; infusion, primary screen): reduced body temperature | toxicity (C57BL/6 mice [1]; mouse, in vivo): toxic

SCCOCCS [2-mercaptoethyl ether]
reduction of body (subcutaneous) temperature (C57BL/6 mice [1]; infusion, primary screen): reduced body temperature | toxicity (C57BL/6 mice [1]; mouse, in vivo): toxic

OCCS [2-Mercapto-ethanol]
toxicity (C57BL/6 mice [1]; mouse, in vivo): toxic | reduction of body (subcutaneous) temperature (C57BL/6 mice [1]; mouse, in vivo, sc): reduced body temperature

N#C[S-].[Na+] [sodium thiocyanate]
effective dose (C57BL/6 mice [1]; [8]): 4.67 mmol/kg

N=C(N)[SeH] [selenourea]
enhancement of survival in hypoxia (C57BL/6 mice [2]; lethal hypoxia 4% O2): did not enhance survival in hypoxia | reduction of body (subcutaneous) temperature (C57BL/6 mice [1]; mouse, in vivo, sc): reduced body temperature

NCCCNCCSP(=O)(O)O [phosphorothioic acid S-(2-((3-aminopropyl)amino)ethyl)ester]
enhancement of survival in hypoxia (C57BL/6 mice [2]; mouse, in vivo): did not enhance survival in hypoxia | reduction of body (subcutaneous) temperature (C57BL/6 mice [1]; mouse, in vivo, sc): reduced body temperature

S [H2S, hydrogen sulfide]
number of progeny (C. elegans [3]): 227±18 | delay in reaching 75% mortality versus control population (maximum lifespan) (C. elegans [4]; H2S-treated animals): 10 days | lifespan (C. elegans [4]; raised in H2S until L4, monitored in room air (FIG. 3C)): 12.8 ± 0.7 days | recovery after survival in 5% O2 (mice): no noticeable motor or behavioral deficits | average rate of egg-laying (C. elegans [5]; clk-1(qm30), assayed in 2% O2 + H2S): 2.5 ± 1.0 embryos per hour | average rate of egg-laying (C. elegans [5]; clk-1(qm30), assayed in H2S): 3.2 ± 1.1 embryos per hour | average rate of egg-laying (C. elegans [5]; unadapted (wild-type grown in room air), assayed in 2% O2 + H2S): 4.5 ± 1.6 embryos per hour | average rate of egg-laying (C. elegans [5]; unadapted (wild-type grown in room air), assayed in H2S): 8.3 ± 3.0 embryos per hour | fraction of H2S-treated animals alive when the last untreated control animal had expired (mean) (C. elegans [6]; 15 experiments, L4 to 3rd day adults, 33 to 37 C (FIG. 11A)): 0.8 | average of H2S-treated animals alive when all untreated animals had died (C. elegans [6]; 15 independent experiments, high temperature): 77-80% | survival time at high temperature (C. elegans [6]; grown in H2S before heat-shock, exposed to 35 C in room air (FIG. 2C)): 7.3 h
